Results reported in patent US20190069550A1, “HERBICIDAL COMPOSITIONS CONTAINING PYRIDINE CARBOXYLIC ACIDS OR DERIVATIVES THEREOF, WITH PDS AND VLCFA INHIBITORS, OR DERIVATIVES THEREOF” (Dow AgroSciences LLC, priority 2017, published 2019).
“And” between values parts separate entries of the source, which are not always exact repeats. Identical values can stand only once.

How the values were obtained:
Format in all cases: in vivo
Settings in all cases: 20-22 d
[1] = system: Abutilon theophrasti (velvetleaf); assay: Postemergence herbicidal activity, greenhouse, ABUTH
Protocol: (§1) Seeds of the desired test plant species were planted in Sun Gro MetroMix® 360 planting mixture, which typically has a pH of 6.0 to 6.8 and an organic matter content of about 30 percent, in plastic pots with a surface area of 103.2 square centimeters (cm^2). When required to ensure good germination and healthy plants, a fungicide treatment and/or other chemical or physical treatment was applied. The plants were grown for 7-36 days (d) in a greenhouse with an approximate 14-hour (h) photoperiod which was maintained at about 23° C. during the day and 22° C. during the night. Nutrients and water were added on a regular basis and supplemental lighting was provided with overhead metal halide 1000-Watt lamps as necessary. The plants were employed for testing when they reached the second or third true leaf stage.
(§2) Weighed amounts of technical material were dissolved in a volume of 97:3 volume per volume (v/v) acetone/dimethyl sulfoxide (DMSO) to make stock solutions. […] The concentrated stock solutions were diluted with an aqueous mixture of 1.5% v/v of Agri-dex crop oil concentrate to provide the appropriate application rates. […]
(§3) The treated plants and control plants were placed in a greenhouse as described above and watered by sub-irrigation to prevent wash-off of the test compounds. After 20-22 d, the condition of the test plants as compared with that of the control plants was determined visually and scored on a scale of 0 to 100 percent where 0 corresponds to no injury and 100 corresponds to complete kill. The condition of the test plants was compared with that of the control plants as determined visually and scored on a scale of 0 to 100 percent, where 0 corresponds to no injury and 100 corresponds to complete kill. […]
(§4) Compound 1 was formulated as an EC and was combined with phytoene desaturase inhibitor herbicides, very long chain fatty acid inhibitor herbicides, or mixtures thereof, and applied to weeds, and the phytotoxicity of the herbicidal composition was measured. […]

[2] = system: Cirsium arvense (thistle); assay: Postemergence herbicidal activity, greenhouse, CIRAR
Protocol: as §1
(§5) Weighed amounts of technical material were dissolved in a volume of 97:3 volume per volume (v/v) acetone/dimethyl sulfoxide (DMSO) to make stock solutions. […] The concentrated stock solutions were diluted with an aqueous mixture of 1.5% v/v of Agri-dex crop oil concentrate to provide the appropriate application rates. Compound requirements are based upon a 12 milliliter (mL) application volume at a rate of 187 liters per hectare (UJha). Spray solutions of the experimental compound mixtures were prepared by adding the stock solutions to the appropriate amount of dilution solution to form a 12 mL spray solution in two-way combinations. Formulated compounds were applied to the plant material with an overhead Mandel track sprayer equipped with 8002E nozzles calibrated to deliver 187 L/ha over an application area of 0.503 square meters (m^2) at a spray height of 18 inches ([…] (cm)) above average plant canopy. Control plants were sprayed in the same manner with the solvent blank. Application rates for component (a) are in g ae/ha, and application rates for component (b) are in g ai/ha.
as §3, §4

[3] = system: Chenopodium album L. (common lambsquarters); assay: Postemergence herbicidal activity, greenhouse, CHEAL
Protocol: as §1, §5, §3, §4

[4] = system: Euphorbia heterophylla (poinsettia); assay: Postemergence herbicidal activity, greenhouse, EPHHL
Protocol: as §1, §5
The treated plants and control plants were placed in a greenhouse as described above and watered by sub-irrigation to prevent wash-off of the test compounds. After 20-22 d, the condition of the test plants as compared with that of the control plants was determined visually and scored on a scale of 0 to 100 percent where 0 corresponds to no injury and 100 corresponds to complete kill. The condition of the test plants was compared with that of the control plants as determined visually and scored on a scale of 0 to 100 percent, where 0 corresponds to no injury and 100 corresponds to complete kill. Colby's equation was used to determine the herbicidal effects expected from the mixtures.
as §4

[5] = system: Brassica napus (spring rape); assay: Postemergence herbicidal activity, greenhouse, BRSNN
Protocol: as §1, §2, §3, §4

[6] = system: Cyperus esculentus (nutsedge); assay: Postemergence herbicidal activity, greenhouse, CYPES
Protocol: When required to ensure good germination and healthy plants, a fungicide treatment and/or other chemical or physical treatment was applied. The plants were grown for 7-36 days (d) in a greenhouse with an approximate 14-hour (h) photoperiod which was maintained at about 23° C. during the day and 22° C. during the night. Nutrients and water were added on a regular basis and supplemental lighting was provided with overhead metal halide 1000-Watt lamps as necessary. The plants were employed for testing when they reached the second or third true leaf stage. Weighed amounts of technical material were dissolved in a volume of 97:3 volume per volume (v/v) acetone/dimethyl sulfoxide (DMSO) to make stock solutions. […] The concentrated stock solutions were diluted with an aqueous mixture of 1.5% v/v of Agri-dex crop oil concentrate to provide the appropriate application rates. Compound requirements are based upon a 12 milliliter (mL) application volume at a rate of 187 liters per hectare (UJha). Spray solutions of the experimental compound mixtures were prepared by adding the stock solutions to the appropriate amount of dilution solution to form a 12 mL spray solution in two-way combinations. […] Control plants were sprayed in the same manner with the solvent blank. Application rates for component (a) are in g ae/ha, and application rates for component (b) are in g ai/ha. The treated plants and control plants were placed in a greenhouse as described above and watered by sub-irrigation to prevent wash-off of the test compounds. […] Colby's equation was used to determine the herbicidal effects expected from the mixtures. Compound 1 was formulated as an EC and was combined with phytoene desaturase inhibitor herbicides, very long chain fatty acid inhibitor herbicides, or mixtures thereof, and applied to weeds, and the phytotoxicity of the herbicidal composition was measured. […]

[7] = system: Digitaria sanguinalis (large crabgrass); assay: Postemergence herbicidal activity, greenhouse, DIGSA
Protocol: as §1, with “The plants were employed for testing when they reached the second or third true leaf stage.” left out
as §3

[8] = system: Echinochloa crus-galli (barnyardgrass); assay: Postemergence herbicidal activity, greenhouse, ECHCG
Protocol: as §1, §2, §3, §4

[9] = system: Ipomoea hederacea (ivyleaf morningglory); assay: Postemergence herbicidal activity, greenhouse, IPOHE
Protocol: as §1, §2, §3, §4

Kochia scoparia (kochia) = assay: Postemergence herbicidal activity, greenhouse, KCHSC
Protocol: as §1, §2, §3, §4

Oryza sativa (rice) = assay: Postemergence crop injury, greenhouse, ORYSA
Protocol: as §1, with “The plants were employed for testing when they reached the second or third true leaf stage.” left out
as §3

[10] = system: Polygonum convolvulus (wild buckwheat); assay: Postemergence herbicidal activity, greenhouse, POLCO
Protocol: as §1, §2, §3, §4

[11] = system: Sorghum vulgare (grain sorghum); assay: Postemergence herbicidal activity, greenhouse, SORVU
Protocol: as §1, §2, §3, §4

[12] = system: Triticum aestivum (winter wheat); assay: Postemergence crop injury, greenhouse, TRZAW
Protocol: as §1, §2, §3, §4

Zea mays (maize/corn) = assay: Postemergence crop injury, greenhouse, ZEAMX
Protocol: as §1, §2, §3, §4

[13] = system: Amaranthus retroflexus (pigweed); assay: Postemergence herbicidal activity, greenhouse, AMARE
Protocol: as §1, §2, §3, §4

[14] = system: Stellaria media (chickweed); assay: Postemergence herbicidal activity, greenhouse, STEME
Protocol: as §1, with “The plants were employed for testing when they reached the second or third true leaf stage.” left out
as §3

[15] = system: Veronica hederifolia (ivyleaf speedwell); assay: Postemergence herbicidal activity, greenhouse, VERHE
Protocol: as §1, with “The plants were employed for testing when they reached the second or third true leaf stage.” left out
as §3

[16] = system: Viola tricolor (wild pansy); assay: Postemergence herbicidal activity, greenhouse, VIOTR
Protocol: as §1, §2, §3, §4

CC(C)N(C(=O)COc1nnc(C(F)(F)F)s1)c1ccc(F)cc1 [Flufenacet, N-(4-fluorophenyl)-N-(1-methylethyl)-2-[[5-(trifluoromethyl)-1,3,4-thiadiazol-2-yl]oxy]acetamide]
% Visual Injury ([1]; flufenacet 60 g ai/ha): 0% | % Visual Injury ([2]; flufenacet 60 g ai/ha): 0% | % Visual Injury ([3]; flufenacet 60 g ai/ha): 10% | % Visual Injury ([4]; flufenacet 60 g ai/ha): 0%

O=C(Nc1ccc(F)cc1F)c1cccnc1Oc1cccc(C(F)(F)F)c1 [Diflufenican, N-(2,4-difluorophenyl)-2-[3-(trifluoromethyl)phenoxy]-3-pyridinecarboxamide]
% Visual Injury ([1]; diflufenican 50 g ai/ha): 0% | % Visual Injury ([5]; diflufenican 50 g ai/ha): 20% | % Visual Injury ([2]; diflufenican 50 g ai/ha): 20% | % Visual Injury ([6]; diflufenican 50 g ai/ha): 0% | % Visual Injury ([7]; diflufenican 50 g ai/ha): 10% | % Visual Injury ([8]; diflufenican 50 g ai/ha): 0% | % Visual Injury ([4]; diflufenican 50 g ai/ha): 10% | % Visual Injury ([9]; diflufenican 50 g ai/ha): 0% | % Visual Injury (Kochia scoparia (kochia); diflufenican 50 g ai/ha): 10% | % Visual Injury (Oryza sativa (rice); diflufenican 50 g ai/ha): 0% | % Visual Injury ([10]; diflufenican 50 g ai/ha): 10% | % Visual Injury ([11]; diflufenican 50 g ai/ha): 0% | % Visual Injury ([12]; diflufenican 50 g ai/ha): 0% | % Visual Injury (Zea mays (maize/corn); diflufenican 50 g ai/ha): 5%

Cn1nc(C(F)(F)F)c(CS(=O)(=O)C2=NOC(C)(C)C2)c1OC(F)F [Pyroxasulfone, 3-[[[5-(difluoromethoxy)-1-methyl-3-(trifluoromethyl)-1H-pyrazol-4-yl]methyl]sulfonyl]-4,5-dihydro-5,5-dimethylisoxazole]
% Visual Injury ([13]; pyroxasulfone 100 g ai/ha): 0% | % Visual Injury ([3]; pyroxasulfone 100 g ai/ha): 10% | % Visual Injury ([4]; pyroxasulfone 100 g ai/ha): 0% | % Visual Injury (Kochia scoparia (kochia); pyroxasulfone 100 g ai/ha): 0% | % Visual Injury ([14]; pyroxasulfone 100 g ai/ha): 40% | % Visual Injury ([15]; pyroxasulfone 100 g ai/ha): 0% | % Visual Injury ([16]; pyroxasulfone 100 g ai/ha): 0%

O=C(Nc1ccc(F)cc1)c1cccc(Oc2cccc(C(F)(F)F)c2)n1 [Picolinafen, N-(4-fluorophenyl)-6-[3-(trifluoromethyl)phenoxy]-2-pyridinecarboxamide]
% Visual Injury ([13]; picolinafen 12.5 g ai/ha): 20% | % Visual Injury ([5]; picolinafen 12.5 g ai/ha): 25% | % Visual Injury ([2]; picolinafen 12.5 g ai/ha): 10% | % Visual Injury ([6]; picolinafen 12.5 g ai/ha): 0% | % Visual Injury ([8]; picolinafen 12.5 g ai/ha): 10% | % Visual Injury ([9]; picolinafen 12.5 g ai/ha): 5% | % Visual Injury ([10]; picolinafen 12.5 g ai/ha): 0% | % Visual Injury ([11]; picolinafen 12.5 g ai/ha): 0% | % Visual Injury ([12]; picolinafen 12.5 g ai/ha): 0% | % Visual Injury ([16]; picolinafen 12.5 g ai/ha): 10% | % Visual Injury (Zea mays (maize/corn); picolinafen 12.5 g ai/ha): 5%

Nc1c(F)c(-c2ccc3cc[nH]c3c2F)nc(C(=O)O)c1Cl [Compound 1]
% Visual Injury ([1]; 10 g ae/ha): 50% | % Visual Injury ([13]; 5 g ae/ha): 93% and 65% | % Visual Injury ([5]; 5 g ae/ha): 50% | % Visual Injury ([2]; 10 g ae/ha): 60% | % Visual Injury ([3]; 5 g ae/ha): 90% and 80% | % Visual Injury ([3]; 10 g ae/ha): 95% | % Visual Injury ([6]; 5 g ae/ha): 10% | % Visual Injury ([7]; 5 g ae/ha): 0% | % Visual Injury ([8]; 5 g ae/ha): 60% | % Visual Injury ([4]; 5 g ae/ha): 97% and 75% | % Visual Injury ([4]; 10 g ae/ha): 100% | % Visual Injury ([9]; 5 g ae/ha): 20% | % Visual Injury (Kochia scoparia (kochia); 5 g ae/ha): 65% | % Visual Injury (Oryza sativa (rice); 5 g ae/ha): 0% | % Visual Injury ([10]; 5 g ae/ha): 70% | % Visual Injury ([11]; 5 g ae/ha): 60% | % Visual Injury ([14]; 5 g ae/ha): 65% | % Visual Injury ([12]; 5 g ae/ha): 10% | % Visual Injury ([15]; 5 g ae/ha): 40% | % Visual Injury ([16]; 5 g ae/ha): 10% and 5% | % Visual Injury (Zea mays (maize/corn); 5 g ae/ha): 10%
